Measured values taken from ChEMBL document CHEMBL5108088, “N-Methylamide-structured SB366791 derivatives with high TRPV1 antagonistic activity: toward PET radiotracers to visualize TRPV1” (RSC Med Chem, 2022).

Legend:
[1] = Drug uptake in iv dosed Sprague-Dawley rat skin assessed as high radioactivity in body surface and measured upto 60 mins by PET imaging analysis; type: ADME, organism-based, Skin of body; details: in vivo, 1 h
[2] = Drug uptake in iv dosed Sprague-Dawley rat brain hypothalamus assessed as high radioactivity in hypothalamus and measured upto 60 mins by PET imaging analysis; type: ADME, organism-based; details: in vivo, 1 h
[3] = Drug uptake in iv dosed Sprague-Dawley rat brain cerebellum assessed as high radioactivity in brain cerebellum and measured upto 60 mins by PET imaging analysis; type: ADME, organism-based; details: in vivo, 1 h
[4] = Drug uptake in iv dosed Sprague-Dawley rat urinary bladder assessed as high radioactivity in urinary bladder and measured upto 60 mins by PET imaging analysis; type: ADME, organism-based; details: in vivo, 1 h
[5] = Drug uptake in iv dosed Sprague-Dawley rat brain assessed as high radioactivity in brain cortical area and measured upto 60 mins by PET imaging analysis; type: ADME, organism-based; details: in vivo, 1 h
[6] = Drug uptake in iv dosed Sprague-Dawley rat gastrointestinal tract assessed as high radioactivity in gastrointestinal tract and measured upto 60 mins by PET imaging analysis; type: ADME, organism-based; details: in vivo, 1 h
[7] = Drug uptake in iv dosed Sprague-Dawley rat brain medulla oblongata assessed as high radioactivity in medulla oblongata and measured upto 60 mins by PET imaging analysis; type: ADME, organism-based; details: in vivo, 1 h
[8] = Drug uptake in iv dosed Sprague-Dawley rat brain striatum assessed as high radioactivity in striatum and measured upto 60 mins by PET imaging analysis; type: ADME, organism-based; details: in vivo, 1 h
[9] = Drug uptake in iv dosed Sprague-Dawley rat brain thalamus assessed as high radioactivity and measured upto 60 mins by PET imaging analysis; type: ADME, organism-based; details: in vivo, 1 h
[10] = Drug uptake in iv dosed Sprague-Dawley rat liver assessed as high radioactivity in liver and measured upto 60 mins by PET imaging analysis; type: ADME, organism-based; details: in vivo, 1 h
[11] = target: Transient receptor potential cation channel subfamily V member 1 (Rattus norvegicus, UniProt O35433); experiment: Antagonist activity at rat TRPV1 expressed in human HEK293 cells assessed as inhibition of capsaicin-induced influx by measuring intracellular calcium accumulation by fura-2 dye based fluorimetric assay; type: cell-based
Transient receptor potential cation channel subfamily V member 1, sequence (O35433 whole entry): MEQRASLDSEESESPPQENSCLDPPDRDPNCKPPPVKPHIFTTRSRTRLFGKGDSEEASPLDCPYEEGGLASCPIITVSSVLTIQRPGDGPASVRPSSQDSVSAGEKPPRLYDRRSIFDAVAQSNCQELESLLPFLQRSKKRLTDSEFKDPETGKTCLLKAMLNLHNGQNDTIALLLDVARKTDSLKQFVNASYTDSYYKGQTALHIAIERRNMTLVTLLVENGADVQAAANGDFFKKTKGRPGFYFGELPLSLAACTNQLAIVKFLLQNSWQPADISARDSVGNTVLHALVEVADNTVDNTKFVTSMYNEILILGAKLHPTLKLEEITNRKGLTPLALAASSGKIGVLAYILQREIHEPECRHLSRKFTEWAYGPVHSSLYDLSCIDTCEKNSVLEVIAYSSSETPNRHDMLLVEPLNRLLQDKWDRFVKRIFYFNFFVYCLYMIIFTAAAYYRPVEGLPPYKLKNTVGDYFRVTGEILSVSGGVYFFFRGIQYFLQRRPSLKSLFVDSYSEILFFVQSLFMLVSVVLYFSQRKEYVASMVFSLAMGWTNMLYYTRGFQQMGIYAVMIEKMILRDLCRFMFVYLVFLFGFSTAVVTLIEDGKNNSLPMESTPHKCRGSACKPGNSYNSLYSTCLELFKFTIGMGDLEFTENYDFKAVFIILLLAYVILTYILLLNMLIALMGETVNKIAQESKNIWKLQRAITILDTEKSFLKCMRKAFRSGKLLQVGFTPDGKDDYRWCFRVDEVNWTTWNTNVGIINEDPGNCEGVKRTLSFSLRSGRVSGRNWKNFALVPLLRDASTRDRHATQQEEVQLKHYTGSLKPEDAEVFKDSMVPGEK

Row | Drug uptake [2] | Drug uptake [5] | Drug uptake [7] | Drug uptake [8] | Drug uptake [9] | IC50 [11] | SMILES | further results
1 | Active | Active | Active | Active | Active | – | CN(C(=O)/C=C/c1ccc(Cl)cc1)c1cccc(O[11CH3])c1 | Drug uptake [1]: Active; Drug uptake [3]: Active; Drug uptake [4]: Active; Drug uptake [6]: Active; Drug uptake [10]: Active
2 | – | – | – | – | – | 1100 nM | CN(C(=O)/C=C/c1ccc(Cl)cc1)c1cccc(OCCCF)c1 | –
3 | – | – | – | – | – | 3700 nM | COc1cccc(NC(=O)/C=C/c2ccc(Cl)cc2)c1 | –
4 | – | – | – | – | – | 4200 nM | CN(C(=O)/C=C/c1ccc(Cl)cc1)c1cccc(OCCF)c1 | –
5 | – | – | – | – | – | 1300 nM | COc1cccc(N(C)C(=O)/C=C/c2ccc(Cl)cc2)c1 | –
6 | Active | Active | Active | Active | Active | – | CN(C(=O)/C=C/c1ccc(Cl)cc1)c1cccc(OCCC[18F])c1 | –
